Measured values published in ChEMBL document CHEMBL5352439, “Design, synthesis, biological evaluation and molecular docking study of novel urea-based benzamide derivatives as potent poly(ADP-ribose) polymerase-1 (PARP-1) inhibitors” (Eur J Med Chem, 2022).

Columns and labels:
[1] = system: HCT-116; experiment: Induction of apoptosis in human HCT-116 cells assessed as early apoptotic cells at 5 uM incubated for 48 hrs by Annexin-V and PI staining based flow cytometry analysis (reference value: 1.26%); assay type: functional
[2] = system: HCT-116; experiment: Induction of apoptosis in human HCT-116 cells assessed as late apoptotic cells at 5 uM incubated for 48 hrs by Annexin-V and PI staining based flow cytometry analysis (reference value: 0.06%); assay type: functional
[3] = system: HCT-116; experiment: Induction of apoptosis in human HCT-116 cells assessed as late apoptotic cells at 20 uM incubated for 48 hrs by Annexin-V and PI staining based flow cytometry analysis (reference value: 0.06%); assay type: functional
[4] = system: HCT-116; experiment: Induction of apoptosis in human HCT-116 cells assessed as early apoptotic cells at 20 uM incubated for 48 hrs by Annexin-V and PI staining based flow cytometry analysis (reference value: 1.26%); assay type: functional
[5] = system: HeLa; experiment: Antiproliferative activity against human HeLa cells assessed as inhibition of cell growth incubated for 48 hrs by MTT assay; assay type: functional, cell-based
[6] = system: HCT-116; experiment: Induction of apoptosis in human HCT-116 cells assessed as viable cells at 20 uM incubated for 48 hrs by Annexin-V and PI staining based flow cytometry analysis (reference value: 98.50%); assay type: functional; conditions: read-out: Activity
[7] = system: HCT-116; experiment: Induction of cell cycle arrest in human HCT-116 cells assessed as accumulation of cells at G2/M phase at 10 to 40 uM incubated for 48 hrs by propidium iodide staining based flow cytometry analysis (reference value: 27.38 %); assay type: functional; conditions: dose 10-40 µM
[8] = system: HCT-116; experiment: Induction of apoptosis in human HCT-116 cells assessed as early apoptotic cells at 10 uM incubated for 48 hrs by Annexin-V and PI staining based flow cytometry analysis (reference value: 1.26%); assay type: functional
[9] = system: HCT-116; experiment: Inhibition of cell migration in human HCT-116 cells at 20 uM incubated for 24 hrs by wound healing assay (reference value: 32.0 %); assay type: functional
[10] = system: HeLa; experiment: Antiproliferative activity against human HeLa cells assessed as inhibition of cell growth at 20 uM incubated for 48 hrs by MTT assay; assay type: functional
[11] = system: HCT-116; experiment: Induction of apoptosis in human HCT-116 cells assessed as viable cells at 10 uM incubated for 48 hrs by Annexin-V and PI staining based flow cytometry analysis (reference value: 98.50%); assay type: functional; conditions: read-out: Activity
[12] = system: HCT-116; experiment: Induction of apoptosis in human HCT-116 cells assessed as late apoptotic cells at 10 uM incubated for 48 hrs by Annexin-V and PI staining based flow cytometry analysis (reference value: 0.06%); assay type: functional
[13] = system: HCT-116; experiment: Inhibition of colony formation in human HCT-116 cells at 7.5 uM measured every 3 days for 14 days by crystal violet staining based assay; assay type: functional; conditions: HCT-116, 336 h, time 14 day
[14] = system: MDA-MB-231; experiment: Antiproliferative activity against human MDA-MB-231 cells assessed as inhibition of cell growth incubated for 48 hrs by MTT assay; assay type: functional, cell-based; conditions: MDA-MB-231, 48 h
[15] = system: HCT-116; experiment: Inhibition of colony formation in human HCT-116 cells measured every 3 days for 14 days by crystal violet staining based assay; assay type: functional, cell-based; conditions: dose 1.88-15 µM, time 14.0 day
[16] = system: HCT-116; experiment: Inhibition of cell migration in human HCT-116 cells at 10 uM incubated for 24 hrs by wound healing assay (reference value: 32.0 %); assay type: functional
[17] = system: HCT-116; experiment: Induction of cell cycle arrest in human HCT-116 cells assessed as decrease in cells at G0/G1 phase at 10 to 40 uM incubated for 48 hrs by propidium iodide staining based flow cytometry analysis (reference value: 63.67 %); assay type: functional; set-up: scale not given: the % may be the effect or the level left; conditions: dose 10-40 µM
[18] = system: HCT-116; experiment: Induction of apoptosis in human HCT-116 cells assessed as necrotic cells at 20 uM incubated for 48 hrs by Annexin-V and PI staining based flow cytometry analysis (reference value: 0.08%); assay type: functional
[19] = system: A-375; experiment: Antiproliferative activity against human A-375 cells assessed as inhibition of cell growth at 20 uM incubated for 48 hrs by MTT assay; assay type: functional
[20] = target: Poly [ADP-ribose] polymerase 1 (Homo sapiens, UniProt P09874); experiment: Inhibition of PARP1 (unknown origin) by ELISA
[21] = system: L02; experiment: Antiproliferative activity against human L02 cells assessed as inhibition of cell growth […] incubated for 48 hrs by MTT assay; assay type: functional, cell-based; conditions: L02, 48 h
[22] = system: HCT-116; experiment: Induction of apoptosis in human HCT-116 cells assessed as necrotic cells at 10 uM incubated for 48 hrs by Annexin-V and PI staining based flow cytometry analysis (reference value: 0.08%); assay type: functional
[23] = system: HCT-116; experiment: Induction of apoptosis in human HCT-116 cells assessed as necrotic cells at 5 uM incubated for 48 hrs by Annexin-V and PI staining based flow cytometry analysis (reference value: 0.08%); assay type: functional
[24] = system: HCT-116; experiment: Antiproliferative activity against human HCT-116 cells assessed as inhibition of cell growth at 20 uM incubated for 48 hrs by MTT assay; assay type: functional
[25] = system: A549; experiment: Antiproliferative activity against human A549 cells assessed as inhibition of cell growth at 20 uM incubated for 48 hrs by MTT assay; assay type: functional
[26] = system: A-375; experiment: Antiproliferative activity against human A-375 cells assessed as inhibition of cell growth incubated for 48 hrs by MTT assay; assay type: functional, cell-based; conditions: A-375, 48 h
[27] = system: A549; experiment: Antiproliferative activity against human A549 cells assessed as inhibition of cell growth incubated for 48 hrs by MTT assay; assay type: functional, cell-based; conditions: A549, 48 h
[28] = system: HCT-116; experiment: Inhibition of cell migration in human HCT-116 cells at 20 uM incubated for 48 hrs by wound healing assay (reference value: 42.8 %); assay type: functional
[29] = system: MDA-MB-231; experiment: Antiproliferative activity against human MDA-MB-231 cells assessed as inhibition of cell growth at 20 uM incubated for 48 hrs by MTT assay; assay type: functional
[30] = system: HCT-116; experiment: Inhibition of colony formation in human HCT-116 cells at 10 uM measured every 3 days for 14 days by crystal violet staining based assay; assay type: functional; conditions: HCT-116, 336 h, time 14 day
[31] = system: HCT-116; experiment: Induction of apoptosis in human HCT-116 cells assessed as viable cells at 5 uM incubated for 48 hrs by Annexin-V and PI staining based flow cytometry analysis (reference value: 98.50%); assay type: functional; conditions: read-out: Activity
[32] = system: HCT-116; experiment: Inhibition of cell migration in human HCT-116 cells at 10 uM incubated for 48 hrs by wound healing assay (reference value: 42.8 %); assay type: functional
[33] = system: HCT-116; experiment: Potency index, ratio of olaparib IC50 to test compound IC50 for antiproliferative activity against human HCT-116 cells; assay type: functional

Sequence of Poly [ADP-ribose] polymerase 1 (P09874 whole entry): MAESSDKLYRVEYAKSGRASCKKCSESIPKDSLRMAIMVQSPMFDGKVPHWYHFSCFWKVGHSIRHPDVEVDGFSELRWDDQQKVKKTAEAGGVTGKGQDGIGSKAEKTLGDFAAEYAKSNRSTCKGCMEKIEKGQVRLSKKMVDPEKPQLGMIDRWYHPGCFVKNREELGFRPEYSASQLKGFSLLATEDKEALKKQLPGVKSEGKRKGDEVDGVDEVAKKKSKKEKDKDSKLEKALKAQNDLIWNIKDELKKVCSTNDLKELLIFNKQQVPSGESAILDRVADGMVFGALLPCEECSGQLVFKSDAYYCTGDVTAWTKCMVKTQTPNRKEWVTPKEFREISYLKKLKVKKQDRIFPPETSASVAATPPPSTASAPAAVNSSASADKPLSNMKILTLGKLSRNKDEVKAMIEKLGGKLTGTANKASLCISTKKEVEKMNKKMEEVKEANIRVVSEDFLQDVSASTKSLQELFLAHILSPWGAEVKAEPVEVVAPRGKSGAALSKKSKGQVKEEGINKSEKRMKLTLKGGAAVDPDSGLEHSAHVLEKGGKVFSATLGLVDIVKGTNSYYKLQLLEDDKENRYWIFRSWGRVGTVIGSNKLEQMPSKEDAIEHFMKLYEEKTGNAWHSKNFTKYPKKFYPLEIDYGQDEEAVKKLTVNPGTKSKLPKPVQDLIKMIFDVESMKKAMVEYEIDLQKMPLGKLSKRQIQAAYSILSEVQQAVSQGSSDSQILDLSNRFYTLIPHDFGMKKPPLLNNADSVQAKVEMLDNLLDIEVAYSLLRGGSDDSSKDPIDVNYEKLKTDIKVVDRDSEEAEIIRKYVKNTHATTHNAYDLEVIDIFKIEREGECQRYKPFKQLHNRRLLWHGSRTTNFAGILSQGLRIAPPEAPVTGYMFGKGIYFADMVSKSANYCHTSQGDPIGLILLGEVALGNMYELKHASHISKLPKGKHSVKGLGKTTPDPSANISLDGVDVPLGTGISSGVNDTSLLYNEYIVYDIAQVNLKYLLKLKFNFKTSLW

In the case of `NC(=O)c1ccccc1OCc1cccc(NC(=O)Nc2cccc(Br)c2)c1`, the Activity [1] is reported as 4.09%, the Activity [2] is reported as 0.77% and the Activity [3] is reported as 0.89%. It also gave an Activity [4] of 40.51%, an IC50 [5] of 13.3 µM and a viability at 20 µM [6] of 58.5%. For the same compound, the Activity [7] was 34.14%, the Activity [8] was 11.56% and the inhibition at 20 µM [9] was 12%. It also gave an inhibition at 20 µM [10] of 71.2%, a viability at 10 µM [11] of 85% and an Activity [12] of 2.44%. For the same compound, the inhibition at 7.5 µM [13] was 100%, the IC50 [14] was 14.2 µM and the inhibition [15] was “Dose-Dependent Effect”. The inhibition at 10 µM [16] was 23%, the Activity [17] was 55.17% and the Activity [18] was 0.15%. It also gave an inhibition at 20 µM [19] of 80.8%, an IC50 [20] of 0.00606 µM and an IC50 [21] of 71.1 µM. For the same compound, the Activity [22] was 0.95%, the Activity [23] was 0.55% and the inhibition at 20 µM [24] was 90.7%. The inhibition at 20 µM [25] was 49.3%, the IC50 [26] was 19.5 µM and the IC50 [27] was 26.4 µM. The inhibition at 20 µM [28] was 19.3%, the inhibition at 20 µM [29] was 78.8% and the inhibition at 10 µM [30] was 100%. For the same compound, the viability at 5 µM [31] was 94.6%, the inhibition at 10 µM [32] was 25.1% and the “Ratio IC50” value [33] was 8.93.
